Assay results reported in patent US20110236359A1 (priority 2007, published 2011).

Legend:
[1] = test system: Lactobacillus rhamnosus GG (ATCC 53103); assay: Antibiotic MIC plates (resistance profile); format: cell-based; settings: Lacticaseibacillus rhamnosus, ATCC53103
From the text: (§1) The protocol was adapted from Delgado et al. (2005). Minimum Inhibitory Concentration (MIC) Plate (# GPN3F) and Anaerobe MIC Plate (# AN02B) were used to determine the antibiotic sensitivity and resistance profile of MM19 and MM33 according to the instructions of the manufacturer (Trek Diagnostic Systems; Nova Century, Burlington, ON, Canada).
(§2) Lactococcus lactis subsp. lactis MM19, Pediococcus acidilactici MM33 and Lactobacillus rhamnosus GG (ATCC 53103) from frozen glycerol stock were first inoculated in Lactobacilli MRS and incubated at 37° C. for 18 h. 100 μl of this culture were further incubated under the same conditions. This second culture was then inoculated on a MRS agar plate and incubated at 37° C. for 48 h under anaerobic conditions using GasPak Plus system (BD BBL, Sparks, Md., USA).

[2] = test system: Lactococcus lactis subsp. lactis MM19; assay: Antibiotic MIC plates (resistance profile); format: cell-based; settings: Lactococcus lactis
From the text: as §1, §2

[3] = test system: Pediococcus acidilactici MM33; assay: Antibiotic MIC plates (resistance profile); format: cell-based; settings: Pediococcus acidilactici, MM33
From the text: as §1, §2

[4] = test system: vancomycin-resistant Enterococcus faecium (VRE) clinical isolate; assay: Agar well-diffusion assay against VRE clinical isolate; format: cell-based; settings: all concentrations evaluated between 0 to 800 μg/ml; data not shown
Procedure: A clinical isolate of vancomycin-resistant Enterococcus faecium (VRE) was provided by the Centre Hospitalier de l'Université de Montréal microbiology laboratory (CHUM; Montreal, QC, Canada). […] The E. faecium strain was maintained in brain-heart infusion (BHI; Difco) for E. faecium containing 10% glycerol (w/v).
An agar well-diffusion assay was performed to verify the antimicrobial capacity of the neutralized cell-free supernatant (CFS) against a VRE clinical isolate. CFS was obtained as described before. A volume of 30 ml of cooled (45° C.) sterile BHI agar, containing 0.75% agar, was inoculated with 10^7 colony-forming units (CFU)/ml of VRE, poured into a […] standard Petri dishes and allowed to solidify for 30 minutes at room temperature. Wells of 6 mm in diameter were cut-out and […] of antimicrobial agent were placed into each well. All plates were then placed at 4° C. for 30 minutes, incubated at 37° C. for 24 h and examined for inhibition zones. Inhibition was scored positive if the width of the clearing zone around the well was 0.5 mm. Antibiotics were also evaluated with this method to ascertain the resistance of the VRE strain. Vancomycin and clindamycin (Sigma-Aldrich, Oakville, ON, Canada) were used in concentrations ranging from 0 to 800 μg/ml. […]

[5] = test system: L. monocytogenes HPB 2812 serotype ½a; assay: Inhibitory activity of purified pediocin on growth in broth; format: cell-based, Listeria monocytogenes; settings: for Viable counts: from 9.14
Procedure: Different amounts of purified bacteriocin (0 to 800 AU/ml) were added to cultures of L. monocytogenes HPB 2812 serotype ½a in early exponential phase (grown for 6 h) and incubated at 37° C. Bacterial growth was monitored by measuring the bacterial population in a 1 ml sample taken every 2 h of incubation. These samples were serially diluted ten-fold in peptone water (0.1% w/v), pour-plated in BHI agar and then incubated at 37° C. for 24 h. Colonies were counted using Darkfield Quebec Colony Counter (American Optical, Scientific instrument division, Keene, Ohio, USA).

Molecule | MIC [1] [µg/mL] | MIC [2] [µg/mL] | MIC [3] [µg/mL] | Sensitivity of the VRE clinical isolate (in words) [4] | Decrease in viable CFU ml^−1 ([5]; at least 200 AU ml^−1 added into the culture medium) | Viable counts ([5]; two hours after addition of 100 AU ml^−1) [log CFU ml^−1] | Viable counts ([5]; two hours after addition of 200 AU ml^−1) [log CFU ml^−1] | Viable counts ([5]; two hours after addition of 400 AU ml^−1) [log CFU ml^−1] | Viable counts ([5]; two hours after addition of 800 AU ml^−1) [log CFU ml^−1]
CN[C@H](CC(C)C)C(=O)N[C@H]1C(=O)N[C@@H](CC(N)=O)C(=O)N[C@H]2C(=O)N[C@H]3C(=O)N[C@H](C(=O)N[C@H](C(=O)O)c4cc(O)cc(O)c4-c4cc3ccc4O)[C@H](O)c3ccc(c(Cl)c3)Oc3cc2cc(c3O[C@@H]2O[C@H](CO)[C@@H](O)[C@H](O)[C@H]2O[C@H]2C[C@](C)(N)[C@H](O)[C@H](C)O2)Oc2ccc(cc2Cl)[C@H]1O [VAN, Vancomycin] | > 128 | < 1 | > 128 | resistant |  |  |  |  | 
pediocin (KYYGNGVTCGKHSCSVDWGKATTCIINNGAMAWATGGHQGNHKC; Pediococcus acidilactici MM33) |  |  |  |  | more than 99.9% | 8.7 | 6.0 | 4.36 | 2.81
